assay: Evaluation of Antiviral Activity of Compounds Against Human Coronavirus (HCov) 229E and OC43 in the Cytopathic Effect (CPE) Assays: Compounds were assayed using standard methods against multiple coronaviral strains, including HCoV 229E and OC43 strains.

Which results are given for `N#C[C@H](C[C@@H]1CCCNC1=O)NC(=O)[C@@H]1CC2(CCCCC2)CN1C(=O)c1cc2ccc(Cl)cc2[nH]1` (single isomer, unassigned)?
EC50: < 2 µM; IC50: < 2 µM

With `CCCOc1cccc2[nH]c(C(=O)N[C@@H](CC(C)C)C(=O)N[C@H](C#N)C[C@@H]3CCNC3=O)cc12` as the molecule, how does the EC50 read?
Its EC50 is < 2 µM.

With `N#C[C@H](C[C@@H]1CCCNC1=O)NC(=O)[C@H]1CC2(CN1C(=O)c1cc3cccc(Cl)c3[nH]1)CC(F)(F)C2` (single isomer, unassigned) as the molecule, how does the EC50 read?
Its EC50 is < 2 µM.

What about the IC50 of the same molecule?
The IC50 was < 2 µM.

Which EC50 does the source give for `COc1cccc2[nH]c(C(=O)N3CC4(CCC4)C[C@@H]3C(=O)N[C@H](C#N)C[C@@H]3CCCNC3=O)cc12` (single isomer, unassigned; isomer 2) here?
The EC50 was < 2 µM.

Which IC50 does the source give for `COc1cccc2[nH]c(C(=O)N[C@@H](CC3CC3)C(=O)N[C@@]3(C#N)C[C@@H]4CC[C@@H]3[C@H]3C(=O)NC(=O)[C@@H]43)cc12` (single isomer, unassigned; isomer 1) here?
The IC50 was > 30 µM.

Source: ChEMBL document CHEMBL5729078, “Inhibitors of cysteine proteases and methods of use thereof” (2022)
